From patent US20170240522A1, “BENZOTHIOPHENE, BENZYLOXYBENZYLIDENE AND INDOLINE DERIVATIVES USEFUL FOR THE TREATMENT OF TUBERCULOSIS” (priority 2014, published 2017)

Key:
[1] = test system: mycobacterial outer membrane permeability; experiment: Ethidium bromide (EtBr) uptake assay; type: cell-based, Mycobacterium tuberculosis; details: 10 μM
Experimental: (§1) Bacteria were grown for 24 hours in the presence of test compounds. The BacTiter-Glo microbial cell viability reagent (Promega) was used for the quantification of ATP according to the recommendations of the manufacturer. For EtBr uptake assays, bacteria were washed with PBS containing 0.05% Tween 80, OD600 was adjusted to 0.4 and 100 μl were pipetted into black 96 well plates. EtBr was added (4 μM final concentration) and fluorescence was read every 2 min. at 545/600 nm. Unpaired Student's T-tests were used for statistical analyses.
To investigate whether BBH7 alters mycobacterial outer membrane permeability, which might explain the transcriptomic pattern associated with metal-ion toxicity, the Applicant performed ethidium bromide (EtBr) uptake assays after treatment with the compounds of interest. These assays identify altered outer membrane permeability by an increase of fluorescence after binding of EtBr to bacterial nucleic acids. […] This was not observed with BTP15.

[2] = test system: Mtb-GFP inside activated THP-1 cells; type: cell-based, Mycobacterium tuberculosis; details: activated THP-1, 10 μM
[3] = test system: ATP-levels of Mtb; experiment: Quantification of intracellular ATP levels; type: cell-based, Mycobacterium tuberculosis; details: 10 μM, 24 hours
Experimental: as §1

[4] = test system: GroEL; details: BBH7 and BTP15 treatment
Experimental: In brief, 30 ml of bacteria grown to mid-logarithmic phase (OD600 of 0.6 to 0.7) in Sauton's medium supplemented with 0.05% Tween 80 were centrifuged and resuspended in Sauton's medium without Tween. Compounds were added at concentrations as indicated and cells were grown further at 37° C. with shaking for 4 days. Cultures were harvested by centrifugation to obtain culture filtrates and cell pellets. Culture filtrates were concentrated 100-fold in 5-kDa cutoff Vivaspin columns (Sartorius). Cell lysates were prepared by bead beating bacterial pellets in lysis buffer with 100-μm glass beads.
For immunoblot analysis, 5 μg of protein were resolved by SDS-gel electrophoresis and transferred to nitrocellulose membranes. Membranes were blocked with TBS-buffer (3% milk powder) and incubated overnight with the desired primary antibody diluted in TNT-buffer supplemented with 1% BSA fraction V. Membranes were washed with TNT, incubated with the appropriate secondary antibody in TNT-BSA, washed again with TNT, and developed. GroEL2 was used as a lysis control for culture filtrates and as a loading control for cell lysates.

[5] = test system: ESX-1; experiment: ESX-1 inhibitory activity of inhibitors of mycobacterium virulence (Table VII); type: cell-based, Mycobacterium tuberculosis
[6] = test system: Mtb-Erdman; experiment: Growth of Mtb in 7H9 broth; type: cell-based, Mycobacterium tuberculosis; details: 25 μM
[7] = test system: Mtb expressing GFP in infected fibroblasts; type: cell-based, Mycobacterium tuberculosis; details: compound concentration 5 μM (FIG. 2D)

For `CSC(=S)N/N=C(\C)c1ccc(OCc2ccc(F)cc2F)cc1` [BBH7, N′-{1-[4-(2,4-Difluoro-benzyloxy)-phenyl]ethylidene}-hydrazinecarbodithioic acid methyl ester], the “EtBr accumulation and fluorescence” value [1] was “increases EtBr accumulation and fluorescence”, the intracellular bacterial load [2] was “greatly reduced the intracellular bacterial load” and the “mycobacterial ATP levels” value [3] was “not found to be reduced”. The “GroEL in the culture filtrate (cell lysis)” value [4] was “not observed”, the Activity [5] was 97% and the “growth inhibition of Mtb” value [6] was “no growth inhibition”. The “GFP fluorescence of Mtb in infected fibroblasts” value [7] was “no fluorescence was detected”.
